Measured values taken from ChEMBL document CHEMBL1152164, “The first X-ray crystal structure of the glucocorticoid receptor bound to a non-steroidal agonist” (Bioorg Med Chem Lett, 2008).

Tests used:
[1] = target: T1, Glucocorticoid receptor (Homo sapiens, UniProt P04150); assay: Binding affinity to glucocorticoid receptor
T1 sequence (P04150 whole entry): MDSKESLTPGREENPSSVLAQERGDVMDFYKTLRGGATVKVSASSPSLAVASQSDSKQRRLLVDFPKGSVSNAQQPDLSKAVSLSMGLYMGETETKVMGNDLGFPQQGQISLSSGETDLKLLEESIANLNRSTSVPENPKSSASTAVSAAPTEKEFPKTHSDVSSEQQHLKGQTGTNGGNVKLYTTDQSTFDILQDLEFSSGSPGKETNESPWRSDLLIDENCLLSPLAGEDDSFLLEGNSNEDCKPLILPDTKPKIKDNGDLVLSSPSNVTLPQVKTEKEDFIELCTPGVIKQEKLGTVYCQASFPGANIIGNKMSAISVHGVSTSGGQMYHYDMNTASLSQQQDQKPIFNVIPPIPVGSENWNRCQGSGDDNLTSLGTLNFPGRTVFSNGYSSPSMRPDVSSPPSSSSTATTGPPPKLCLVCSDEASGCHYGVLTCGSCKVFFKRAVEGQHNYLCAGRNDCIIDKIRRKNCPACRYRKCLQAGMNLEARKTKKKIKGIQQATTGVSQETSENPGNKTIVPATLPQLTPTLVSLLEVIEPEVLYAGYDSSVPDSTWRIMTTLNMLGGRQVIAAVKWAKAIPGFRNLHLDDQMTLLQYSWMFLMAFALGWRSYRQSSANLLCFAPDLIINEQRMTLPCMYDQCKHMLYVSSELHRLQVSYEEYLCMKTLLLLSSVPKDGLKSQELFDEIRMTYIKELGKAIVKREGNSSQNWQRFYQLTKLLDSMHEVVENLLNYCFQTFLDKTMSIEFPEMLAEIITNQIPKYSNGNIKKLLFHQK

[2] = target: T1, Glucocorticoid receptor; assay: Agonist activity at glucocorticoid receptor by MMTV transactivation assay; format: functional
[3] = target: T2, Androgen receptor (Homo sapiens, UniProt P10275); assay: Binding affinity to androgen receptor
T2 sequence (P10275 whole entry): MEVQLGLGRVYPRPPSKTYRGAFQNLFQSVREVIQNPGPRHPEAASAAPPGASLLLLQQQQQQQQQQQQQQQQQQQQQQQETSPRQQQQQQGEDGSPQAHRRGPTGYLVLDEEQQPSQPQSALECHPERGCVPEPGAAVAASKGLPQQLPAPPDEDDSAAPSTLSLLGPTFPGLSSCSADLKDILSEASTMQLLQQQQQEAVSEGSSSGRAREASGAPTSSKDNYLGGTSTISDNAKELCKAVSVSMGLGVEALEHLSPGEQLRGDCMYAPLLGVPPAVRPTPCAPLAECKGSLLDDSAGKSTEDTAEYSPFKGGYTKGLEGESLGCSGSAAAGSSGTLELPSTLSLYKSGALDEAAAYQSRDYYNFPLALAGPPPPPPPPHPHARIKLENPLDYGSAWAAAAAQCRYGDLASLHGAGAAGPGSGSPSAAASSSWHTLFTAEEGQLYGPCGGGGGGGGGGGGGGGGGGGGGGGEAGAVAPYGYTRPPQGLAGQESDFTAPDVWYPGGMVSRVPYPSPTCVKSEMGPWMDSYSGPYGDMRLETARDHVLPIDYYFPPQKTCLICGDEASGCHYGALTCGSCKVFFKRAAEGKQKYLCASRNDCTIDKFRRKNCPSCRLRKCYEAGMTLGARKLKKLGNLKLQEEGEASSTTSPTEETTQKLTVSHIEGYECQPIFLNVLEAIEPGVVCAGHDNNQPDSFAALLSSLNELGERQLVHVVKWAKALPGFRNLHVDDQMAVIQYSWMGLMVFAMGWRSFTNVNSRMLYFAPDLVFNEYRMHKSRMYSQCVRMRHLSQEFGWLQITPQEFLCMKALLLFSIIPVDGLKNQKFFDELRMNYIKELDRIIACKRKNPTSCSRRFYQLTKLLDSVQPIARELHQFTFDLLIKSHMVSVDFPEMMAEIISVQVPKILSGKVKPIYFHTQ

[4] = target: T3, Progesterone receptor (Homo sapiens, UniProt P06401); assay: Binding affinity to progesterone receptor
T3 sequence (P06401 whole entry): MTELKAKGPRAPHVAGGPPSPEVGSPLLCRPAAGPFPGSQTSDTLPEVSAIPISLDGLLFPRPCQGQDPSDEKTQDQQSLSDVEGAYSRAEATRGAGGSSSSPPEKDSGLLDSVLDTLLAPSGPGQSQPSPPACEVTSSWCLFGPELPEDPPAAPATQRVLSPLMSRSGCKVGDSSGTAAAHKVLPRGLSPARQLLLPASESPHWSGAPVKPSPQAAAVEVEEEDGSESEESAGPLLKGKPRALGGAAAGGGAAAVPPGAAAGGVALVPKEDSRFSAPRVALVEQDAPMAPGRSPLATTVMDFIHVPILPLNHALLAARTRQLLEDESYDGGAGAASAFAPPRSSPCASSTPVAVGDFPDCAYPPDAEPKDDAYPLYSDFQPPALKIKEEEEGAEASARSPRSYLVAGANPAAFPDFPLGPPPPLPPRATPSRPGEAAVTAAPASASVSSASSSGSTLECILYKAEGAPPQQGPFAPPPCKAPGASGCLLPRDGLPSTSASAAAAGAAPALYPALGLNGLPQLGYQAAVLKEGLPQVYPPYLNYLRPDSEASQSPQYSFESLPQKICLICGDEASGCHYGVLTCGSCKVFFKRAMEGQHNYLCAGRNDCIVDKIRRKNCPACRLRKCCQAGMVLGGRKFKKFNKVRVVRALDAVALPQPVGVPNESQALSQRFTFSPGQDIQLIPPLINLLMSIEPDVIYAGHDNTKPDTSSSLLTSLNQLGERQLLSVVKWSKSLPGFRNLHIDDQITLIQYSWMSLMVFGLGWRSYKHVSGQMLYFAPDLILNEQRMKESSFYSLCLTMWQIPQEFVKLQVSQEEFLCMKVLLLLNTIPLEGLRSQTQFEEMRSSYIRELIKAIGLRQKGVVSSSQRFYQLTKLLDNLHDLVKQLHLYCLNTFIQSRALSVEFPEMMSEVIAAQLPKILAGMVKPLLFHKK

[5] = target: T4, Mineralocorticoid receptor (Homo sapiens, UniProt P08235); assay: Binding affinity to mineralocorticoid receptor
T4 sequence (P08235 whole entry): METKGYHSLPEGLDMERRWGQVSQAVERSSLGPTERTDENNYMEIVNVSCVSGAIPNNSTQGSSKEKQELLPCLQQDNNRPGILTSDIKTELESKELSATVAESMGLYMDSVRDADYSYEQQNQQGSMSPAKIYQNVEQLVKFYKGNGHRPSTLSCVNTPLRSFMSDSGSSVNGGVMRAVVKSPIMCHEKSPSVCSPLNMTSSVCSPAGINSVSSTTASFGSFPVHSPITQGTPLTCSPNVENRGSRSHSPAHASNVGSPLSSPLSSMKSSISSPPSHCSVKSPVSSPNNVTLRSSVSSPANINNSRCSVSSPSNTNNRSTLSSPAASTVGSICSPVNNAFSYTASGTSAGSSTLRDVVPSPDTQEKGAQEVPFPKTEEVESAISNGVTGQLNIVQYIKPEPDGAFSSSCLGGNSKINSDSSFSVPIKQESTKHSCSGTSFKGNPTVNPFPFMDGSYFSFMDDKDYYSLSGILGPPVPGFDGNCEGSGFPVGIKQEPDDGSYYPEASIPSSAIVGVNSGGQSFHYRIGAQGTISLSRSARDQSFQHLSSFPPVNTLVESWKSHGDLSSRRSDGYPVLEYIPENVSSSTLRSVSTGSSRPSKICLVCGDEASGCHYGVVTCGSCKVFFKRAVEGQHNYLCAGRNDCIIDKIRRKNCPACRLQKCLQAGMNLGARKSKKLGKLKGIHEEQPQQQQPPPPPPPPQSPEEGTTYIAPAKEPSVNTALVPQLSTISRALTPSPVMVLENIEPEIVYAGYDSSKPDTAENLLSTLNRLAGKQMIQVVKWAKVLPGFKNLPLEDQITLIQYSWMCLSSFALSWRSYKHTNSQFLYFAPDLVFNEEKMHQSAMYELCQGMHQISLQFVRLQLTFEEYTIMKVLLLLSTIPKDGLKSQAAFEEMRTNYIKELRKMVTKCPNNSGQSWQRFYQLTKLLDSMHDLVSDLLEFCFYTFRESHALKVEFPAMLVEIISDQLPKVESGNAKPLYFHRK

CCN(C[C@](O)(CNC(=O)c1cnn(-c2ccc(F)cc2)c1N)C(F)(F)F)C(=O)c1c(Cl)cccc1Cl
IC50 [1]: 3.16 nM | EC50 [2]: 2 nM | EC50 [3]: > 10000 nM | EC50 [4]: > 10000 nM | EC50 [5]: > 10000 nM
